Measurements taken from patent publication US12661342B2, “Heteroaryl compounds and therapeutic uses thereof in conditions associated with the alteration of the activity of beta-glucocerebrosidase” (GT GAIN THERAPEUTICS SA, priority 2019, dated 2026).

Molecular target: T1, β-glucocerebrosidase (Homo sapiens, UniProt P04062, L483P)
T1 construct: host or cells: human Gaucher disease patient fibroblasts GM08760A
T1 sequence (P04062 40-536 L483P): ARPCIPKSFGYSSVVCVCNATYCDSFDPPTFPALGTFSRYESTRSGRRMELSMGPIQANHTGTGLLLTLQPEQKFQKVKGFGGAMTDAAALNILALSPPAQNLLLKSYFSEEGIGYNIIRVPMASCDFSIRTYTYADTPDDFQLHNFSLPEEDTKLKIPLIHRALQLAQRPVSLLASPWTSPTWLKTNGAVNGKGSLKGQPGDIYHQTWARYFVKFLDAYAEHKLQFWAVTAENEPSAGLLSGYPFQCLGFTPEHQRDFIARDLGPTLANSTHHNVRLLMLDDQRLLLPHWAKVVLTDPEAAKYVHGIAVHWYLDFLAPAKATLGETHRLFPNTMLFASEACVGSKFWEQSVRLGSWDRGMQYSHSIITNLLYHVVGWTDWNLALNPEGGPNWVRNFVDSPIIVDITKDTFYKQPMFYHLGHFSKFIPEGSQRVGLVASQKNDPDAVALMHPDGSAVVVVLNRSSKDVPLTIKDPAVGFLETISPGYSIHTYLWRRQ
Assay: Enhancement of β-glucocerebrosidase activity measured in Gaucher disease fibroblasts (4-MU-β-D-glucopyranoside substrate, intact cells)
Format: cell-based
Design: key: Increase in comparison with non-treated of >2.0 fold is shown as A; Increase in comparison with non-treated of >1.7-2.0 fold is shown as B; Increase in comparison with non-treated of 1.2-1.7 fold is shown as C; D means that no increase compared with non-treated cells was detected in this method
Conditions: GBA fibroblasts bearing L444P (GM08760A, homozygous p.L444P); compound at concentrations between 6 and 50 μM; 4 days incubation
In short: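 Patient fibroblasts homozygous for p.L444P (GM08760A), grown in DMEM/10% FBS and exposed to compound for 4 days. Intact cells then given 4-MU-β-D-glucopyranoside in 0.1 M acetate pH 4, 1 h, 37 °C; stopped at pH 10.7, 4-MU fluorescence ex 340/em 460. Value is fold increase over untreated cells; binned at 6–50 μM.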

Range: increase in enzyme activity in comparison with non-treated cells (Enzyme activity assay for exemplified compounds): D
Compound: CN(Cc1ccccc1)C(=O)c1cc(N)nc(N[C@H]2CCCC[C@@H]2O)n1 [Example 15, 6-Amino-N-benzyl-2-(((1S,2S)-2-hydroxycyclohexyl)amino)-N-methylpyrimidine-4-carboxamide]
